# Test results from US9266904B2, “6-bridged heteroaryldihydropyrimidines for the treatment and prophylaxis of hepatitis B virus infection” (priority 2013, dated 2016).
# Like-named read-outs stand apart in the source and are kept apart here.
# Tests used:
# [1] = test system: HBV replication in HepG2.2.15 cells; assay: Anti-HBV activity in vitro in HepG2.2.15 cells (extracellular HBV DNA by qPCR); type: cell-based; settings: Hepatitis B virus, HepG2.2.15, Anti-HBV activity in HepG2.2.15 cells; read-out: EC50
# Summary of the method: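 Constitutively HBV-producing HepG2.2.15 cells were seeded overnight at 37 °C, then treated with half-log serial dilutions of compound (0.5% DMSO final) for five days. Supernatant HBV DNA was extracted and quantified by qPCR; EC50 is the concentration inhibiting HBV replication by 50%.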
# [2] = Lyophilisation solubility assay (Lysa); type: physicochemical; settings: thermodynamic from solid
# Summary of the method: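 DMSO was evaporated from 10 mM stocks, and residues were taken up in 0.05 M phosphate buffer pH 6.5, stirred 1 h, shaken 2 h and left overnight. Filtrates were quantified by UV or HPLC-UV against a four-point calibration, in duplicate. Values are in μg/ml, with a lower-bound value when >80% dissolved.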
# [3] = Cytotoxicity (CCK-8 cell viability) and selectivity index; type: cell-based, human; settings: human, HepDE19 cells; cytotoxicity, concentration resulting in death of 50% of host cells
# Description: (§1) HepG2.2.15 and HepDE19 are stably-transfected cell lines containing the HBV genome. Both cell lines are derived from the hepatoblastoma cell line Hep G2 (American Type Culture Collection, ATCC® HB-8065™) by the published procedures described in references: M A Selles et al. Proc. Natl. Acad. Sci. USA 1987, 84, 1005-1009 and H Guo et al. Journal of Virology 2007, 81, 12472-12484, respectively. Both cell lines were maintained in Dulbecco's modified Eagle's medium (DMEM)-F12 medium supplemented with 10% fetal bovine serum, 100 U/mL penicillin, 100 μg/mL streptomycin, and 0.5 mg/mL of G418.
# (§2) In a cell culture model, apparent antiviral activity of a compound can be the result of host cell death after exposure to the compound. To determine whether the anti-HBV effect of a test compound is due to cytotoxicity, HepDE19 cells were seeded into 96-well plates (5×10^3 cells per well) and treated with compounds as described above for EC50 determination. Five days after treatment, cell viability was measured by addition of 20 μL of CCK-8 reagent. Two hours after incubation at 37° C., the absorbance at wavelengths of 450 nm and 630 nm (OD450 and OD630) was recorded by a plate reader. The concentration results in the death of 50% of the host cells (CC50) of each compound was determined (See Table 5).
# [4] = test system: HepDE19 cells; assay: as above; type: cell-based, human; settings: CC50 value/EC50 value
# Description: as §1, §2
# [5] = Human microsomal clearance assay; type: in vitro ADME; settings: human, 1 μM, pH 7.4
# Summary of the method: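 Liver microsomes (0.5 mg/mL protein) were incubated with 1 μM compound at 37 °C, pH 7.4 phosphate, with an NADPH-regenerating system. Samples at 0-30 min were quenched and measured by LC-MS/MS for parent loss. No-NADPH controls were included.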
Structure (SMILES),EC50 [1] [nM],"solubility thermodynamic ([2]; pH 6.5, aqueous buffer) [µg/mL]",CC50 at 5 days [3] [nM],Selectivity index (CC50/EC50) [4],CLh [5] [mL/min/kg],"solubility thermodynamic ([2]; aqueous buffer, 0.05 M phosphate buffer (pH 6.5), reported as bigger than the value if more than 80% of the sample is in solution, read-out: Lysa) [µg/mL]"
"CCOC(=O)C1=C(CN2[C@@H]3COC[C@H]2C[C@H](CC(=O)O)C3)NC(c2nccs2)=N[C@H]1c1ccc(F)cc1Br [Example 67, Exo-2-[(1S,5R)-9-[[(4R)-4-(2-bromo-4-fluoro-phenyl)-5-ethoxycarbonyl-2-thiazol-2-yl-1,4-dihydropyrimidin-6-yl]methyl]-3-oxa-9-azabicyclo[3.3.1]nonan-7-yl]acetic acid]",4,319,> 100000,>25000,2.9,–
"COC(=O)C1=C(CN2C3CC(F)(F)C2C[C@@](O)(CC(=O)O)C3)NC(c2nccs2)=N[C@H]1c1cccc(F)c1Cl (single isomer, unassigned) [Example 120]",9.6,317,87000,9083,0,–
"COC(=O)C1=C(CN2C3COCC2CC(O)(CO)C3)NC(c2nccs2)=N[C@H]1c1ccc(F)cc1Cl (stereo partly drawn) [Example 10, (R)-4-(2-Chloro-4-fluoro-phenyl)-6-(7-hydroxy-7-hydroxymethyl-3-oxa-9-aza-bicyclo[3.3.1]non-9-ylmethyl)-2-thiazol-2-yl-1,4-dihydro-pyrimidine-5-carboxylic acid methyl ester]",8.8,435,> 100000,>11364,–,–
"CCOC(=O)C1=C(CN2[C@@H]3COC[C@H]2C[C@H](CC(=O)O)C3)NC(c2nccs2)=N[C@H]1c1ccccc1Cl [Example 72, Exo-2-[(1S,5R)-9-[[(4R)-4-(2-chlorophenyl)-5-ethoxycarbonyl-2-thiazol-2-yl-1,4-dihydropyrimidin-6-yl]methyl]-3-oxa-9-azabicyclo[3.3.1]nonan-7-yl]acetic acid]",13.2,640,> 100000,>7576,2.8,–
"CCOC(=O)C1=C(CN2C3CCC2(C(=O)O)COC3)NC(c2nccs2)=N[C@H]1c1cccc(F)c1Cl (stereo partly drawn) [Example 83, 8-[[(4R)-4-(2-chloro-3-fluoro-phenyl)-5-ethoxycarbonyl-2-thiazol-2-yl-1,4-dihydropyrimidin-6-yl]methyl]-3-oxa-8-azabicyclo[3.2.1]octane-5-carboxylic acid]",8.6,564,65000,7558,1.6,–
"COC(=O)C1=C(CN2[C@@H]3COC[C@H]2C[C@H](CC(=O)O)C3)NC(c2nccs2)=N[C@H]1c1cccc(F)c1Cl [Example 59, Exo-2-[(1S,5R)-9-[[(4R)-4-(2-chloro-3-fluoro-phenyl)-5-methoxycarbonyl-2-thiazol-2-yl-1,4-dihydropyrimidin-6-yl]methyl]-3-oxa-9-azabicyclo[3.3.1]nonan-7-yl]acetic acid]",15.6,> 732,> 100000,>6410,2.1,–
"COC(=O)C1=C(CN2[C@@H]3COC[C@H]2C[C@H](CC(=O)O)C3)NC(c2nccs2)=N[C@H]1c1ccc(F)cc1Br [Example 58, 2-[(1S,5R)-9-[[(4R)-4-(2-bromo-4-fluoro-phenyl)-5-methoxycarbonyl-2-thiazol-2-yl-1,4-dihydropyrimidin-6-yl]methyl]-3-oxa-9-azabicyclo[3.3.1]nonan-7-yl]acetic acid]",11.4,> 701,> 100000,>8772,2.1,–
"COC(=O)C1=C(CN2[C@@H]3COC[C@H]2C[C@H](NS(N)(=O)=O)C3)NC(c2nccs2)=N[C@H]1c1ccc(F)cc1Cl [Example 63, Methyl (4R)-4-(2-chloro-4-fluoro-phenyl)-6-[[(1R,5S)-7-exo-(sulfamoylamino)-3-oxa-9-azabicyclo[3.3.1]nonan-9-yl]methyl]-2-thiazol-2-yl-1,4-dihydropyrimidine-5-carboxylate]",1.5,–,34000,22367,4.1,–
"COC(=O)C1=C(CN2C3COCC2c2c(n(C)[nH]c2=O)C3)NC(c2nccs2)=N[C@H]1c1ccc(F)cc1Cl (stereo partly drawn) [Example 33, (R)-4-(2-Chloro-4-fluoro-phenyl)-6-(5-methyl-3-oxo-10-oxa-4,5,12-triaza-tricyclo[6.3.1.0*2,6*]dodec-2(6)-en-12-ylmethyl)-2-thiazol-2-yl-1,4-dihydro-pyrimidine-5-carboxylic acid methyl ester]",11,100,> 100000,>9091,–,–
"COC(=O)C1=C(CN2CC3(CNC(C)=O)CC2CO3)NC(c2nccs2)=N[C@H]1c1ccc(F)cc1Cl (stereo partly drawn) [Example 145, Methyl (4R)-6-[[4-(acetamidomethyl)-5-oxa-2-azabicyclo[2.2.1]heptan-2-yl]methyl]-4-(2-chloro-4-fluoro-phenyl)-2-thiazol-2-yl-1,4-dihydropyrimidine-5-carboxylate]",17,–,> 100000,>5882,–,585
"COC(=O)C1=C(CN2[C@@H]3COC[C@H]2C[C@H](NC(N)=O)C3)NC(c2nccs2)=N[C@H]1c1ccc(F)cc1Cl [Example 62, Methyl (4R)-4-(2-chloro-4-fluoro-phenyl)-2-thiazol-2-yl-6-[[(1S,5R)-7-exo-ureido-3-oxa-9-azabicyclo[3.3.1]nonan-9-yl]methyl]-1,4-dihydropyrimidine-5-carboxylate]",7,–,46000,6571,4.6,–
"COC(=O)C1=C(CN2[C@@H]3COC[C@H]2C[C@H](NC(C)=O)C3)NC(c2nccs2)=N[C@H]1c1ccc(F)cc1Cl [Example 61, Methyl (4R)-6-[[(1S,5R)-7-exo-acetamido-3-oxa-9-azabicyclo[3.3.1]nonan-9-yl]methyl]-4-(2-chloro-4-fluoro-phenyl)-2-thiazol-2-yl-1,4-dihydropyrimidine-5-carboxylate]",4.8,–,53000,10942,6.3,–
"COC(=O)C1=C(CN2[C@@H]3C[C@@H](CC(=O)O)C[C@H]2C(F)(F)C3)NC(c2nccs2)=N[C@H]1c1ccc(F)c(F)c1C [Example 111, 2-[(1R,3R,5S)-8-[[(4S)-4-(3,4-difluoro-2-methyl-phenyl)-5-methoxycarbonyl-2-thiazol-2-yl-1,4-dihydropyrimidin-6-yl]methyl]-6,6-difluoro-8-azabicyclo[3.2.1]octan-3-yl]acetic acid]",1.2,–,79000,65983,4.8,–
"COC(=O)C1=C(CN2C3COCC2CC(NS(C)(=O)=O)C3)NC(c2nccs2)=N[C@H]1c1ccc(F)cc1Cl (stereo partly drawn) [Example 36, (R)-4-(2-Chloro-4-fluoro-phenyl)-6-(7-methanesulfonylamino-3-oxa-9-aza-bicyclo[3.3.1]non-9-ylmethyl)-2-thiazol-2-yl-1,4-dihydro-pyrimidine-5-carboxylic acid methyl ester]",3,–,38000,11875,7.8,–
"COC(=O)C1=C(CN2[C@@H]3COC[C@H]2C[C@H](NS(C)(=O)=O)C3)NC(c2nccs2)=N[C@H]1c1ccc(F)cc1Cl [Example 60, Methyl (4R)-4-(2-chloro-4-fluoro-phenyl)-6-[[(1R,5S)-7-exo-(methanesulfonamido)-3-oxa-9-azabicyclo[3.3.1]nonan-9-yl]methyl]-2-thiazol-2-yl-1,4-dihydropyrimidine-5-carboxylate]",1.6,–,34000,21169,6.4,–
